Assay results published in patent US11279733B2, “Peptide antibiotics” (priority 2017, dated 2022).
In brackets after ≈: the same amount, converted by molar mass. Like-named read-outs stand apart in the source and are kept apart here. Positions of bridges follow the written chain, without caps; N, C: chain ends. Non-standard residues stand in square brackets, D forms with d. Residues, ends and D or L forms follow the SMILES beside them. *: point of attachment. Decanoyl(3R-OH) = CCCCCCC[C@@H](O)CC(=O)*; Igl = N[C@H](C(=O)O)C1Cc2ccccc2C1; dDab = NCC[C@@H](N)C(=O)O; X8 = CC(C)CCCC(C)CC(=O)*; dDap = NC[C@@H](N)C(=O)O; Dab = NCC[C@H](N)C(=O)O

Key:
[1] = test system: A. baumannii ATCC 19606; conditions: ATCC 19606
Outline: (§1)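 Mid-log cultures grown in Mueller Hinton broth at 37° C were tested by 2-fold broth microdilution at 5×10^5 CFU/mL final. Compounds were dissolved in water and tested over a final range of 32 to 0.015 μg/mL.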

[2] = test system: A. baumannii GN_093 PmxR; conditions: GN 093 PmxR
Outline: as §1

[3] = test system: E. coli ATCC 25922; conditions: ATCC 25922
Outline: as §1

[4] = test system: K. pneumoniae ATCC 13883; conditions: ATCC 13883
Outline: as §1

[5] = test system: K. pneumoniae ATCC 700603, MDR; conditions: ATCC 700603
Outline: as §1

[6] = test system: K. pneumoniae ATCC BAA-2146, NDM-1 pos; conditions: ATCC BAA-2146
Outline: as §1

[7] = test system: K. pneumoniae GN_102 PmxR; conditions: GN 102 PmxR
Outline: as §1

[8] = test system: K. pneumoniae GN_106, PmxR; conditions: GN 106, PmxR
Outline: as §1

[9] = test system: P. aeruginosa ATCC 27853; conditions: ATCC 27853
Outline: as §1

[10] = test system: P. aeruginosa GN_043, PmxR
Outline: as §1

[11] = test system: P. aeruginosa GN_105, PmxR; conditions: GN 105, PmxR
Outline: as §1

[12] = test system: S. aureus ATCC 25923, MSSA; conditions: ATCC 25923
Outline: as §1

[13] = in vitro; conditions: human
Outline: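 HK2 cells were seeded at 2000 per well in DMEM/F12 with 10% FBS and left to attach for 24 h at 37 °C, 5% CO2. They were then exposed for 24 h to 3-fold peptide dilutions starting from 600 μM solutions in quadruplicate. LDH release was read at 450 nm, and CC50 was fitted from dose-response curves.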

[14] = test system: Neisseria gonorrhoeae; assay: MIC determination, Neisseria gonorrhoeae; type: cell-based; conditions: for MIC N. gonorrhoeae FA19 ATCC BAA-1838: strain FA19 ATCC BAA-1838
Protocol: Bacteria were either obtained from American Type Culture Collection (ATCC; Manassas, Va., USA) or independent academic clinical isolate collections, as listed in Table 18 below. Bacteria were cultured in Nutrient broth (NB; Bacto Laboratories, catalogue No. 234000) or Mueller Hinton broth (MHB; Bacto Laboratories, catalogue No. 211443) at 37° C. overnight with shaking (˜180 RPM). A sample of each culture was then diluted 50-fold in fresh MHB and incubated at 37° C. for 2-3 h with shaking (˜180 RPM). Compound stock solutions were prepared as 0.64 mg/mL or 2.56 mg/mL in water. The compounds, at twice the final desired concentration, were serially diluted 2-fold across the wells of 96-well plates (Polystyrene, Corning, catalogue No. 3370). Mid-log phase bacterial cultures (after 2-3 h incubation) were diluted to a final concentration of 1×10^6 colony forming units (CFU)/mL, and 50 μL was added to each well giving a final cell density of 5×10^5 and a compound concentration range of 32 μg/mL to 0.015 μg/mL (128-0.06 μg/mL against P. aeruginosa PA9704).

[15] = in vitro; conditions: human; remark: listed apart in the source
Outline: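 Cells were seeded at 4000 per well and allowed to attach for 24 h at 37 °C, 5% CO2, then exposed to compounds for 24 h. Resazurin (5 μM) was added for 2 h at 37 °C and fluorescence read at 560/590 nm. CC50 was derived by curve fitting of dose-dependent growth inhibition.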

| SMILES | MIC A. baumannii ATCC 19606 [1] [µg/mL] | MIC A. baumannii GN_093 PmxR [2] [µg/mL] | MIC E. coli ATCC 25922 [3] [µg/mL] | MIC K. pneumoniae ATCC 13883 [4] [µg/mL] | MIC K. pneumoniae ATCC 700603, MDR [5] [µg/mL] | MIC K. pneumoniae ATCC BAA-2146, NDM-1 pos [6] [µg/mL] | MIC K. pneumoniae GN_102 PmxR [7] [µg/mL] | MIC K. pneumoniae GN_106, PmxR [8] [µg/mL] | MIC P. aeruginosa ATCC 27853 [9] [µg/mL] | MIC P. aeruginosa GN_043, PmxR ([10]; P. aeruginosa GN_043, PmxR) [µg/mL] | MIC P. aeruginosa GN_105, PmxR [11] [µg/mL] | MIC S. aureus ATCC 25923, MSSA [12] [µg/mL] | CC50 at 24 h [13] [µM] | MIC P. aeruginosa GN_043, PmxR ([10]; polymyxin-resistant) [µg/mL] | MIC N. gonorrhoeae FA19 ATCC BAA-1838 [14] [µg/mL] | CC50 at 24 h [15] [µM] | MIC N. gonorrhoeae F89 ([14]; strain F89) [µg/mL] | MIC N. gonorrhoeae FA1090 A25 ATCC 700825 ([14]; strain FA1090 A25 ATCC 700825) [µg/mL] | MIC N. gonorrhoeae H041 ([14]; strain H041) [µg/mL] |
| --- | --- | --- | --- | --- | --- | --- | --- | --- | --- | --- | --- | --- | --- | --- | --- | --- | --- | --- | --- |
| CC(C)CCCC(C)CC(=O)N[C@H](CCN)C(=O)N[C@H]1CCNC(=O)[C@H](CC(C)C)NC(=O)[C@H](CCN)NC(=O)[C@H](CCN)NC(=O)[C@H](Cc2ccccc2)NC(=O)[C@@H](CC(C)C)NC(=O)[C@H](CCN)NC1=O (stereo partly drawn) [compound 6515, 3,7-dimethyloctanoic acid-D-Dab-cyc[L-Dab-L-Dab-D-Leu-L-Phe-L-Dab-L-Dab-L-Leu]] (X8-[dDab][Dab][Dab][dL]F[Dab][Dab]L; lactam 2-C) | >32 | 16 (≈ 15.6 µM) | 2 (≈ 1.94 µM) | 8 (≈ 7.78 µM) | 4 (≈ 3.89 µM) | 8 (≈ 7.78 µM) | 16 (≈ 15.6 µM) | 32 (≈ 31.1 µM) | 2 (≈ 1.94 µM) | 2 (≈ 1.94 µM) | 2 (≈ 1.94 µM) | 32 (≈ 31.1 µM) | 80 | – | – | – | – | – | – |
| CCCCCCC[C@@H](O)CC(=O)N[C@H](CCN)C(=O)N[C@H]1CCNC(=O)[C@H]([C@@H](C)O)NC(=O)[C@H](CCN)NC(=O)[C@H](CCNC(=O)[C@@H](N)CCCNC(=N)N)NC(=O)[C@H](CC(C)C)NC(=O)[C@@H](Cc2ccccc2)NC(=O)[C@H](CCN)NC1=O [compound 6656, 3(R)OH-nC9CO-D-Dab-cyc[L-Dab-L-Dab-D-Phe-L-Leu-L-Dab(L-Arg)-L-Dab-L-Thr]] ({Decanoyl(3R-OH)}-[dDab][Dab][Dab][dF]L[Dab](Arg)[Dab]T; lactam 2-C) | 16 (≈ 13.5 µM) | >32 | 2 (≈ 1.68 µM) | >32 | 4 (≈ 3.37 µM) | >32 | >32 | >32 | 2 (≈ 1.68 µM) | 8 (≈ 6.73 µM) | 16 (≈ 13.5 µM) | >32 | > 300 | – | – | – | – | – | – |
| CCCCCCC[C@@H](O)CC(=O)N[C@H](CCN)C(=O)N[C@H]1CCNC(=O)[C@H]([C@@H](C)O)NC(=O)[C@H](CCN)NC(=O)[C@H](CCN)NC(=O)[C@H](CC(C)C)NC(=O)[C@@H](Cc2ccccc2)NC(=O)[C@H](CCNC(=O)[C@@H](N)CCCNC(=N)N)NC1=O [compound 6657, 3(R)OH-nC9CO-D-Dab-cyc[L-Dab-L-Dab(L-Arg)-D-Phe-L-Leu-L-Dab-L-Dab-L-Thr]] ({Decanoyl(3R-OH)}-[dDab][Dab][Dab](Arg)[dF]L[Dab][Dab]T; lactam 2-C) | >32 | >32 | >32 | >32 | >32 | >32 | >32 | >32 | 16 (≈ 13.5 µM) | >32 | >32 | >32 | > 300 | – | – | – | – | – | – |
| CCCCCCC[C@@H](O)CC(=O)N[C@H](CCN)C(=O)N[C@H]1CCNC(=O)[C@H](Cc2c[nH]c3ccccc23)NC(=O)[C@H](CCN)NC(=O)[C@H](CCN)NC(=O)[C@H](C2Cc3ccccc3C2)NC(=O)[C@@H](Cc2ccccc2)NC(=O)[C@H](CCN)NC1=O [compound 8103, 3(R)OH-nC9CO-D-Dab-cyc[L-Dab-L-Dab-L-Dab-D-Phe-L-indanylgly-L-Dab-L-Dab-L-Trp]] ({Decanoyl(3R-OH)}-[dDab][Dab][Dab][dF][Igl][Dab][Dab]W; lactam 2-C) | 4 (≈ 3.4 µM) | 4 (≈ 3.4 µM) | 2 (≈ 1.7 µM) | 4 (≈ 3.4 µM) | 2 (≈ 1.7 µM) | 4 (≈ 3.4 µM) | 4 (≈ 3.4 µM) | 4 (≈ 3.4 µM) | 4 (≈ 3.4 µM) | – | 2 (≈ 1.7 µM) | 2 (≈ 1.7 µM) | – | 2 (≈ 1.7 µM) | 0.2 (≈ 0.17 µM) | – | – | – | – |
| CCCCCCC[C@@H](O)CC(=O)N[C@H](CN)C(=O)N[C@H]1CCNC(=O)[C@H](Cc2c[nH]c3ccccc23)NC(=O)[C@H](CCN)NC(=O)[C@H](CCN)NC(=O)[C@H](CC(C)C)NC(=O)[C@@H](Cc2ccccc2)NC(=O)[C@H](CCN)NC1=O [compound 8886, 3(R)OH-nC9CO-D-Dap-cyc[L-Dab-L-Dab-D-Phe-L-Leu-L-Dab-L-Dab-L-Trp]] ({Decanoyl(3R-OH)}-[dDap][Dab][Dab][dF]L[Dab][Dab]W; lactam 2-C) | 8 (≈ 7.25 µM) | 8 (≈ 7.25 µM) | 2 (≈ 1.81 µM) | 4 (≈ 3.63 µM) | 4 (≈ 3.63 µM) | 4 (≈ 3.63 µM) | 4 (≈ 3.63 µM) | 4 (≈ 3.63 µM) | 2 (≈ 1.81 µM) | – | 1 (≈ 0.906 µM) | 4 (≈ 3.63 µM) | – | 2 (≈ 1.81 µM) | 0.39 (≈ 0.353 µM) | 95 | 1.04 (≈ 0.943 µM) | 0.91 (≈ 0.825 µM) | 1.04 (≈ 0.943 µM) |
